# Test results from US6235516A, “Biocatalysts with amine acylase activity” (Novartis AG, priority 1996, dated 2001).
# Legend:
# [1] = tested on: Strain K1/1; assay: Growth and induction of the acylase of Rhodococcus globerulus K1/1, variation of the inducer; format: cell-based; conditions: for induction of acylase formation by strain K1/1: racemic inducer, 0-9.84 mM
# Description: Strain K1/1 is grown in shake flask culture using the medium from example 21, but with 2 g/l of each yeast extract and peptone, with racemic 2-acetylamino-1-phenyl-4-pentene or alternatively racemic N-acetyl-1-phenylethylamine as the inducer in concentrations of 0, 4.92, 7.38, and 9.84 mM.
# [2] = tested on: whole cells of Rhodococcus globerulus K1/1; assay: Amide hydrolysis with whole cells of Rhodococcus globerulus K1/1; format: cell-based
# Source text: (§1) When the conversion reaches about 50% (checked by HPLC) the solutions are acidified to pH 2 by adding 1 N HCl and extracted three times with dichloromethane to obtain the unconverted amides. The aqueous layers are neutralized with 1 N NaOH solution and extracted again three times with dichloromethane to recover the formed amines. Both organic phases are dried with MgSO4, filtered and the solvent is distilled off. The amides are used directly for optical purity determinations (HPLC), whereas the obtained amines are converted to the acetamides by adding 100 μl triethylamine and 100 μl acetic anhydride to each sample and then analyzed for the optical purity by "chiral" HPLC.
# To 50 ml of a 10 mM solution in phosphate buffer pH 7.0 of each racemic amide listed in table 16, whole cells of Rhodococcus globerulus K1/1 (each obtained from 50 ml shake flask medium (see example 21), OD660 =2.0) is added. The deacetylation is performed at 30° C. under continuous shaking (200 rpm). The reaction is monitored by HPLC and after the conversion is about 50% the reaction mixtures are worked up in the same manner as described in example 22.
# [3] = tested on: acylase from Arthrobacter aurescens Ac5R; assay: Enzymatic hydrolysis of racemic amides with highly purified acylase from Arthrobacter aurescens Ac5R; format: biochemical
# Description: (§2) To 10 ml of a 20 mM solution of each of the racemic amides shown below 1 in 0.1 M phosphate buffer pH 7.0, 5 ml (1.3 units) of the enzyme is added and the solutions are shaken at 100 rpm and 30° C. [drawing 10] [drawing 11]
# as §1
# [4] = target: T1, acylase from Rhodococcus equi Ac6 (Rhodococcus (subgen. Prescottella) equi, UniProt A0A3S5Y3Z2); assay: Enzymatic hydrolysis of racemic amides with partially purified acylase from Rhodococcus equi Ac6; format: biochemical; parameters: e.e. (R)-Amide: unit not given here
# T1 construct: N-terminus […]
# Description: as §2, §1
# The experiments are carried out in the same manner as described in example 22.
# [5] = tested on: CC(=O)N[C@@H](C)c1ccccc1; assay: Dependence of the reaction velocity of the Ac6-acylase on substrate concentration (Km); format: biochemical, Rhodococcus equi Ac6; conditions: other: purified Ac6-acylase, pH 7, 30° C., 10 min, nonlinear regression
# Description: Activity assay under the standard conditions given in example 1 with an incubation time of 10 min. are performed using different initial concentrations of (S)-N-acetyl-1-phenylethylamine and the final Ac6-acylase preparation obtained in example 4c, which has been diluted 5 fold with 69 mM potassium phosphate buffer, pH 7, as the enzyme source. The Michaelis constant Km is calculated from the substrate concentrations and the corresponding reaction velocities by numerical nonlinear regression with the program "SigmaPlot for Windows" (Jandel Scientific GmbH, Schimmelbusch, Germany) to the formula: v=Vm×S/(S+Km). v: reaction velocity (U/ml=mM/min.), Vm : maximum reaction velocity (U/ml), S=(S)-N-acetyl-1-phenylethylamine concentration (mM).
# [6] = tested on: whole cells of Rhodococcus globerulus K1/1; assay: Hydrolysis of racemic 2-acetylamino-1(4-chlorophenyl)-4-pentene with whole cells of Rhodococcus globerulus K1/1; format: cell-based; conditions: 80 g racemic amide in 20 l, 21 h at 28° C.
# Description: Strain K1/1 is grown according to example 3 in a 30 l fermenter filled with 20 l of basic medium containing 1 g/l of racemic N-acetyl-1-phenylethylamine. The cells are harvested by continuous centrifugation and resuspended in the reaction mixture, which is prepared by adding a solution of 80 g racemic 2-acetylamino-1(4-chlorophenyl)-4-pentene in 500 ml methanol to 20 l of potassium phosphate buffer, 69 mM, pH 7. After stirring for 21 h at 28° C. and 500 rpm the amine formed and the unreacted amide are separated and analyzed for their optical purity analogously to the procedure given in example 30.
# [7] = tested on: K1/1 acylase; assay: Hydrolysis of racemic 2-acetylamino-1-phenyl-4-pentene with the purified K1/1 acylase; format: biochemical, Rhodococcus globerulus K1/1
# Description: To 50 ml of a 10 mM solution of racemic 2-acetylamino-1-phenyl-4-pentene in phosphate buffer (pH 7.0) 7 ml of the K1/1 acylase are added (0.456 U), which has been purified by HIC and concentrated by ultrafiltration (example 26.5 and 26.6). The deacylation is performed at 30° C. under continuous shaking at 200 rpm. The reaction is monitored by HPLC (see example 1), and after the conversion is about 50% the solution is acidified to pH 2 with 1 N HCl and extracted three times with one volume of dichloromethane to obtain the unconverted amides. The aqueous phase is neutralized with 1 N NaOH and extracted again three times with dichloromethane to recover the formed amines. Both organic phases are dried with MgSO4, filtered and the solvent is distilled off. The amides are used directly for optical purity determinations via HPLC under the following conditions: Chiralcel OJ column, hexane/isopropanol 9:1 as the eluent, flow rate 1 ml/min., detection at 208 nm. The obtained amines are converted to the acetamides by adding […] to each sample before being also analyzed for the optical purity by HPLC.
# [8] = enantioselectivity of the hydrolysis
# [9] = formed amine, analysed as acetamide
# T1 sequence (A0A3S5Y3Z2 1-487): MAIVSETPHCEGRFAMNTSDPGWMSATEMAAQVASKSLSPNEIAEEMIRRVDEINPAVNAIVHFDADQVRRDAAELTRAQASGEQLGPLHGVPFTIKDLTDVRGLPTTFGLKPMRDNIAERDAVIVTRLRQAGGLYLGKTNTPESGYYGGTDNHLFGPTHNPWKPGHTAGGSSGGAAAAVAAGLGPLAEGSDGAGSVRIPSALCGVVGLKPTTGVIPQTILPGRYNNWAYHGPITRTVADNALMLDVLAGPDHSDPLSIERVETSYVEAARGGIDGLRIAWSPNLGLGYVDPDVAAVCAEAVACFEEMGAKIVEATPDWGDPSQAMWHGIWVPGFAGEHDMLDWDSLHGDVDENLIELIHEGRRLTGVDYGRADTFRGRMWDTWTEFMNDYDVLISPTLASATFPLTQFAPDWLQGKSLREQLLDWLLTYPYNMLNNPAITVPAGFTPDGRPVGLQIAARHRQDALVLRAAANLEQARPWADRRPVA
compound,measurement,setting,value
"CC(=O)NC(C)c1ccccc1 (racemic) [Substrate 1a, N-acetyl 1-phenylethylamine]",effect on growth of strain K1/1,[1]; 7.38 and 9.84 mM,do not inhibit the growth
same,induction of acylase formation by strain K1/1,[1],inducing substance
same,Selectivity E,[2]; [8],> 500
same,e.e. (S)-Amine,[2]; [9],97.5
same,e.e. (R)-Amide,"[2]; unconverted amide, chiral HPLC",> 99.9
same,Selectivity E,[3]; [8],> 500
same,e.e. (R)-Amine,"[3]; formed amine, analysed as acetamide by chiral HPLC",98.2
same,e.e. (S)-Amide,"[3]; unconverted amide, chiral HPLC",> 99.9
same,Selectivity E,[4]; [8],350
same,e.e. (S)-Amine,[4]; [9],96.8
same,e.e. (R)-Amide,"[4]; unconverted amide, chiral HPLC",99.3
Ac6-acylase (Rhodococcus equi 103S),Km,[5],0.6 mM
C=CC[C@H](Cc1ccc(Cl)cc1)NC(C)=O [(R)-2-acetylamino-1(4-chlorophenyl)-4-pentene],ee of the unreacted amide,[6],98.5 % ee
C=CC[C@H](N)Cc1ccc(Cl)cc1 [(S)-2-amino-1(4-chlorophenyl)-4-pentene],ee of the formed amine,[6],> 99.9 % ee
C=CCC(Cc1ccccc1)NC(C)=O (racemic) [2-acetylamino-1-phenyl-4-pentene],induction of acylase formation by strain K1/1,[1],inducing substance
same,conversion,"[7]; 10 mM racemic substrate, 0.456 U K1/1 acylase, pH 7.0, 30° C.",50.3%
same,E-value,[7]; at 50.3% conversion,74.9
